Reference: patent EP0365089A2, “2-Aryl-5(3-methoxy-5-(hydroxypropylsulfonyl)-4-propoxyphenyl) tetrahydrothiophen and analogs” (MERCK & CO. INC., priority 1988, dated 1990)

Legend:
[1] = biological target: T1, PAF binding to its specific receptor binding site on rabbit platelet plasma membranes (Oryctolagus cuniculus, UniProt G1TEI7); assay: Inhibition of 3H-PAF binding to platelet plasma membrane (isotopic labeling and filtration); conditions: for inhibition at 30 µM: dose .03 mM; for inhibition at 30000 µM: dose 30 mM
T1 construct: from tissue; host or cells: rabbit platelet plasma membranes
T1 sequence (G1TEI7 1-342): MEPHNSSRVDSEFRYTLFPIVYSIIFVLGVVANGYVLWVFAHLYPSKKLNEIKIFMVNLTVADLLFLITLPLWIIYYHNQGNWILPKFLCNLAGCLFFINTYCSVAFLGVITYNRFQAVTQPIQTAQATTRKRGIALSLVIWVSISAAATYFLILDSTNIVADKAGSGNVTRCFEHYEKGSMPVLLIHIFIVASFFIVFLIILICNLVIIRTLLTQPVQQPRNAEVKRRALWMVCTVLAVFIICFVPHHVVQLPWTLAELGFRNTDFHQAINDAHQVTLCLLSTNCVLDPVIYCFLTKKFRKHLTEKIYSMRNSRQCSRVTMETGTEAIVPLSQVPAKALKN
Protocol: In vitro, they inhibit PAF-induced functions in both the cellular and tissue levels by disturbing the PAF binding to its specific receptor site. The ability of a compound of formula (I) to inhibit the PAF binding to its specific receptor binding site on rabbit platelet plasma membranes was measured by an assay developed by us.
The inhibition of H^3-PAF binding to human or rabbit platelet plasma membrane by a PAF-antagonist of Formula (I) was determined by a method employing isotopic labeling and filtration techniques. Generally, a series of Tris-buffered solutions of the selected antagonist at predetermined concentrations were prepared. Each of these solutions contains 1 pmole of ^3H-PAF, a known amount of the test antagonist, and a sufficient amount of the pH 7.0 Tris-buffer solution (10mM Tris, 0.25% bovine serum albumin, and 10 mM MgC12 per ml water) to make the final volume of 1 ml. After adding into a set of test tubes each with 100 αg of the platelet plasma […] suspension and one of the Tris-buffer solutions described above, the resulting mixture in each test tube was incubated at 0 C for about one hour or until the reaction was complete. Two control samples, one of which (Ci) contains all the ingredients described above except the antagonist and the other (C2) contains C1 plus a 1000-fold excess of unlabeled PAF, were also prepared and incubated simultaneously with the test samples. After the incubation was completed, the contents of each test tube were filtered under vacuo through a Whatman GF/C fiberglass filter and the residue washed rapidly several times with a total of 20 ml cold (0°-5°C) Tris-buffer solution. Each washed residue was then suspended in 10 ml scintillation solution (Aquasol 2, New England Nuclear, Connecticut) and the radioactivity was counted in a Packard Tri-Carb 460CD Liquid Scintillation System. Defining the counts from a test sample as "Total binding with antagonist"; the counts from the control sample C1, as "Total binding C1"; and the counts from the control sample C2 as "non-specific binding C2", the percent inhibition of each test antagonist can be determined by the following equation: [formula] Specific binding =(Total binding C1)-(non-specific binding C2)

[2] = tested on: PAF; assay: PAF-antagonist activity, test not specified; conditions: ranking in words, no test named
[3] = tested on: PAF-induced symptoms including decreased arterial blood flow, increased vascular permeability and increased degranulation in rats; assay: Oral activity of PAF-antagonists in inhibiting PAF-induced symptoms in rats; format: in vivo; conditions: oral dose 1 mg/kg, male rats weighing about 190-220g
Protocol: • 1.) Fast rats overnight. • 2.) Weigh the rats the morning after fasting, • 3.) Suspend a test compound in 0.5% methylcellulose with 12 ounce hand homogenizer or a sonicator if necessary to yield a fine suspension. […] After the beginning of the PAF infusion as well as just before the PAF infusion, measure the following three parameters for each blood sample: • a) the arterial blood flow rate: determined by measuring the time to fill a pre-calibrated 14 µl capillary tube; • b) the vascular permeability: measured by calculating the increased hematocrit which results from loss of plasma from the circulation to extra-vascular spaces. • c) the circulatory degranulation: determined by assaying the increased plasma level of N-acetylglucosaminidase, a marker lysosomal enzyme. • 7.) Determine the percent change in each parameter of a blood sample at each post-PAF interval including the 30 minute interval, relative to the pre-PAF blood values. • 8.) Calculate the percent inhibition by the formula: % inhibition = [formula]

SMILES | PAF-antagonist activity [2] | inhibition at 30 µM [1] [%] | inhibition at 30000 µM [1] [%] | also measured
COc1cc(C2CCC(c3cc(OC)c(OC)c(OC)c3)S2)cnc1OC (centres unmarked) [5,6-di-methoxy-3-pyridyl] | – | – | – | inhibition at 1000 µM ([1]; dose 1 mM): 80%; inhibition at 5000 µM ([1]; dose 5 mM): 96%
CCCOc1c(OC)cc([C@H]2CC[C@H](c3cc(OC)c(OC)c(OC)c3)S2)cc1S(=O)(=O)CC(C)O (relative stereo) [Trans-2-(3,4,5-trimethoxyphenyl)-5-(3-methoxy-5-(2-hydroxypropylsulfonyl)-4-propoxyphenyl)-tetrahydrothiophene] | most active | 89 | – | inhibition at 3 µM ([1]; dose .003 mM): 57%; %inhibition A = increased vascular permeability [3]: 60%; %inhibition B = increased degranulation [3]: 62%
COc1cc(C2CCC(c3cc(OC)c(OC)c(OC)c3)S2)cc(OC)c1OC (centres unmarked) [same as Ar] | – | 69 | – | –
CCCOc1c(C#N)cc([C@H]2CC[C@H](c3cc(OC)c(OC)c(OC)c3)S2)cc1OC (relative stereo) [3-cyano-4-propoxy-5-methoxyphenyl, trans-2-(3,4,5-trimethoxyphenyl)-5-(5-cyano-3-methoxy-4-propoxyphenyl)-tetrahydrothiophene] | – | – | 27 | –
CCOc1c(OC)cc([C@H]2CC[C@H](c3cc(OC)c(OC)c(OC)c3)S2)cc1C(=O)Nc1cccc(Cl)c1 (relative stereo) [(3-chlorophenyl-aminocarbonyl)phenyl, trans-2-(3,4,5-trimethoxyphenyl)-5-(3-methoxy-4-ethoxy-5-(3-chlorophenylaminocarbonyl)-phenyl)tetrahydrothiophene] | most active | – | 6 | –
